Results taken from US7915050B2, “Regulatory genes for plant differentiation and growth, and use of the same” (National University Corporation Nagoya University, priority 2005, dated 2011).
Read-outs that look alike come from different tables or passages of the source.

Key:
GID1 [1] = biological target: T1, GID1 (Oryza sativa subsp. japonica, UniProt Q6L545); test: Competition of various GAs in the binding of the 3H-GA4 derivative to GID1 protein; parameters: species or system rice; conditions: for IC50: competition with tritiated GA4 derivative for binding to recombinant GID1, read-out: IC50 (concentration required for 50% inhibition); for Rel % (relative value): relative competition, GA4 given as 100
T1 construct: GST (tag of vector pGEX-4T) (N); made in house
T1 sequence (Q6L545 whole entry): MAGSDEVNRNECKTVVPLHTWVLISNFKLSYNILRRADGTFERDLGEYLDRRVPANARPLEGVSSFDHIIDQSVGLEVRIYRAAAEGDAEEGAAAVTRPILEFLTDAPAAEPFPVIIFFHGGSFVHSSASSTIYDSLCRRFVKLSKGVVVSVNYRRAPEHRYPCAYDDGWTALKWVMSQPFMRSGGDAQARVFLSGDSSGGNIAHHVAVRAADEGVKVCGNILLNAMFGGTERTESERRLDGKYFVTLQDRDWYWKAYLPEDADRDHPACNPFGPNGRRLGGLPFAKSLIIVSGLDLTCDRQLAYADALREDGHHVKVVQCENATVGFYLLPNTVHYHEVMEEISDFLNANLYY
Description: (§1) In the gibberellin-binding assay, [1,2,16,17-^3H4]16,17-dihydro-GA4 was used as a labeled GA4. In vitro GA-binding assays were carried out using previous methods with some modifications (Nakajima, M. et al., Biochem. Biophys. Res. Comm. 241, 782-786 (1997)). The purified recombinant GID1 protein (400 pmol) was dissolved in 300 μl of binding buffer [20 mM Tris-HCl (pH 7.6), 5 mM 2-mercaptoethanol, and 0.1 M NaCl], and incubated with 100 μl of ^3H4-16,17-dihydroGA4 (6 pmol) for two hours at 25° C., either in the absence of non-labeled GA4 (total binding) or in the presence of 833-fold excess non-labeled GA4 (total non-specific binding). Then, 0.1 ml of the reaction mixture was loaded onto a NAP-5 column (Amersham Biosciences, Piscataway, N.J.). The eluate of the binding buffer (0.6 ml) was discarded, the subsequent eluate (0.2 ml) was collected, and the radioactivity was measured. The specific binding activity, reflecting the number of displaceable GA binding sites, was calculated by subtracting the amount of nonspecific binding from the amount of total binding. The same as above can also be carried out for other GAs.
Thus, it was postulated that, like GID2, GID1 is involved in the degradation of SLR1, or that GID1 functions upstream of SLR1 in GA signaling. […] Based on this phenotypic characteristic of gid1, it was predicted that GID1 was involved in GA perception. To verify this possibility, the interactions between GID1 and radioisotope-labeled GA was directly examined using non-equilibrium gel filtration (Nakajima, M. et al., Biochem. Biophys. Res. Comm. 241, 782-786 (1997)). […] Next, ligand specificity of GID1 was tested by using competition between the tritiated GA4 derivative and various GAs. The concentration of each GA that is required for a 50% inhibition (IC50) of the binding of the tritiated GA4 derivative to GID1 is shown in Table 1. […] The IC50 value for each of these GAs was well consistent with their physiological activity.

AtGID1a = biological target: T2, AtGID1a (Arabidopsis thaliana, UniProt Q9MAA7); test: Competitive ability of GA in AtGID1-GA binding (AtGID1a); conditions: for IC50: tracer 15 nM, mean of at least two measurements
T2 construct: made in house; host or cells: E. coli
T2 sequence (Q9MAA7 1-345): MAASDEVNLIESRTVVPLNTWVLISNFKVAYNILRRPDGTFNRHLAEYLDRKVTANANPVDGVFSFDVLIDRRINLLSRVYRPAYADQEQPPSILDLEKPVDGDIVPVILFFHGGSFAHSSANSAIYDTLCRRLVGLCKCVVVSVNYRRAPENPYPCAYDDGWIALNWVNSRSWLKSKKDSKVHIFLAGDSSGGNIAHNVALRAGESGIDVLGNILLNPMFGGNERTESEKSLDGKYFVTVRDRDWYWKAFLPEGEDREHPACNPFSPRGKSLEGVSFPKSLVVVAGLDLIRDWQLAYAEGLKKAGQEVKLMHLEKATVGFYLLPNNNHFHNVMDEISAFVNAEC
Description: as §1
(§2) Specifically, the coding region of the AtGID1 gene was amplified by PCR using specific primers designed based on the full-length cDNA sequence of the AtGID1 gene and having appropriate restriction sites at each end. After confirmation by sequence analysis, each cDNA fragment was ligated into pET32a vector (Novagen/Merck Biosciences, Madison, Wis., USA) or pGEX-4T-2 vector (Amersham Biosciences, Piscataway, N.J., USA; currently, a part of GE Healthcare). The production of recombinant proteins was confirmed by SDS-PAGE; vector cassettes were used as negative controls. GA binding assays were carried out similarly as described above using [1,2,16,17-^3H4]-16,17-dihydro-GA4 (4.55 TBq/mmol), which was custom-made by DuPont/NEN (Boston, Mass., USA). Non-labeled GA4 (1.25 mM) was used to measure non-specific binding. Saturation experiments for the kinetic analysis were carried out using ten concentrations of 16,17-dihydro-GA4 within the range of 25 to 1,500 nM. Competition assays were performed using [1,2,16,17-^3H4]-16,17-dihydro-GA4 at 15 nM and five concentrations of the non-labeled competitor. Recombinant RGA and GAI proteins were prepared using pET32a by a previously described method.
(§3) The ligand selectivity of each AtGID1 was examined by observing the competitive inhibition, by the addition of GA to the assay mixtures, of the binding between the recombinant proteins and tritiated 16,17-dihydro-GA4 (Table 2). The ligand selectivity was evaluated using the concentration of GA that inhibits 50% of the tracer (15 nM) binding (IC50 value).

AtGID1b = biological target: T3, AtGID1b (Arabidopsis thaliana, UniProt Q9LYC1); test: Competitive ability of GA in AtGID1-GA binding (AtGID1b); conditions: for IC50: tracer 15 nM, mean of at least two measurements
T3 construct: made in house; host or cells: E. coli
T3 sequence (Q9LYC1 1-358): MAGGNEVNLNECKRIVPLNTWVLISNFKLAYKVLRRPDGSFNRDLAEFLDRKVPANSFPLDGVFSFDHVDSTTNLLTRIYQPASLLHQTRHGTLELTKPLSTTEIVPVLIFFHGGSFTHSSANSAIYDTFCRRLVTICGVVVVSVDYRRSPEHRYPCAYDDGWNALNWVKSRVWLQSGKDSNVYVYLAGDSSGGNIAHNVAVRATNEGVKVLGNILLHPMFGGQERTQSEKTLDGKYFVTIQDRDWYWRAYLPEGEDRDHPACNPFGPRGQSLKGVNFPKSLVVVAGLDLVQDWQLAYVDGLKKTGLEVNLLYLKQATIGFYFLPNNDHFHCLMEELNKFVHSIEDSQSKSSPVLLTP
Description: as §1, §2, §3

AtGID1c = biological target: T4, AtGID1c (Arabidopsis thaliana, UniProt Q940G6); test: Competitive ability of GA in AtGID1-GA binding (AtGID1c); conditions: for IC50: tracer 15 nM, mean of at least two measurements
T4 construct: made in house; host or cells: E. coli
T4 sequence (Q940G6 1-344): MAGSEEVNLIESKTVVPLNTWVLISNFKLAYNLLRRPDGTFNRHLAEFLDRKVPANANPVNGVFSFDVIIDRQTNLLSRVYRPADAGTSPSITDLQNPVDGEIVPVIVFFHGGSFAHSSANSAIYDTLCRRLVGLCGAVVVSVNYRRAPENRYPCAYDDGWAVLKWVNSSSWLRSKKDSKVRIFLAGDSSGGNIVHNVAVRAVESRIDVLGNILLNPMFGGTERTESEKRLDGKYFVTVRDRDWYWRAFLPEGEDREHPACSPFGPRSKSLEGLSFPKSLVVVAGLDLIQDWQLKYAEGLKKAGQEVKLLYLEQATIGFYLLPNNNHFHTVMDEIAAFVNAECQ
Description: as §1, §2, §3

GID1 [2] = biological target: T1, GID1; test: Saturation/Scatchard and association/dissociation analysis of GA binding to recombinant GID1; parameters: species or system rice
Description: Panel a) depicts the saturability for the GA binding of GID1. […] Bar represents the standard deviation (n=3). Panel b) depicts the results of a Scatchard plot for the data of binding shown in a. The Kd value was calculated (correlation coefficient R^2=0.96) from t three independent experimental results. Panel c) depicts the ^3H-GA association/dissociation rate to GID1. […] Bar represents the standard deviation (n=3). […] Upper panel, none of three recombinant proteins of mutant GID1s (GID1-1, 1-2, and 1-3) corresponding to the three gid1 alleles interacted with GA4. […] Bar represents the standard deviation (n=3). Bottom panel, Coomassie brilliant blue stain of the recombinant proteins used in this experiment. Dot represents GID or tag proteins in the SDS-PAGE profile. In this experiment, almost equal amounts of proteins were used for each (80 pmol). Panel e) depicts the gross morphologies of a GID1-overexpressing plant (Actin1 promoter-GID1, right) and wild type plant (control, left) three months after seeding. Bar=50 cm. f) dose-dependent GA response in the elongation of the second leaf sheath of GID1overexpressing plant (closed triangle) and wild type (closed circle). Bar represents the standard deviation (n=5).
In the gibberellin-binding assay, [1,2,16,17-^3H4]16,17-dihydro-GA4 was used as a labeled GA4. In vitro GA-binding assays were carried out using previous methods with some modifications (Nakajima, M. et al., Biochem. Biophys. Res. Comm. 241, 782-786 (1997)). […] The eluate of the binding buffer (0.6 ml) was discarded, the subsequent eluate (0.2 ml) was collected, and the radioactivity was measured. The specific binding activity, reflecting the number of displaceable GA binding sites, was calculated by subtracting the amount of nonspecific binding from the amount of total binding. […]
Next, the kinetics of the binding of GID1 to GA was analyzed. To calculate the Kd value of GID1 to GA, the saturability of GA binding was measured using various concentrations of GA4 derivative (FIG. 4a). […]

Row | Substance | IC50 (GID1 [1]) | Rel % (relative value) (GID1 [1]) | relative value, taking the value for GA4 as 100 (AtGID1a) | IC50 (AtGID1a) | relative value, taking the value for GA4 as 100 (AtGID1b) | IC50 (AtGID1b) | relative value, taking the value for GA4 as 100 (AtGID1c) | IC50 (AtGID1c) | half-time required for association/dissociation (GID1 [2]) | half-time required for association/dissociation (GID1 [2]; listed as GA4 derivative)
1 | 3-epi-GA4 | > 200 µM | (<0.1) % | (<0.1) % | > 300 µM | (<0.1) % | 100 µM | (<0.1) % | > 300 µM |  | 
2 | [1,2,16,17-^3H4]16,17-dihydro-GA4 [^3H4-16,17-dihydroGA4] |  |  |  |  |  |  |  |  | within several minutes | several minutes or less
3 | methyl ester of GA4 [GA4-Me] | 30 µM | (0.6) % | (0.1) % | 300 µM | (0.3) % | 9 µM | (0.3) % | 90 µM |  | 
